In US6346544B2, “Desmethyl tocopherols for protecting cardiovascular tissue” (Oklahoma Medical Research Foundation, priority 2000, dated 2002):

Experiments:
[1] = tested on: platelets; assay: platelet aggregation in vitro (PRP, aggregometer); assay type: cell-based, human; conditions: 500 μM α-tocopherol or 50 μM γ-tocopherol, 1 H preincubation
Experimental: […] inhibits platelet aggregation in vitro and in vivo, apparently through antagonism of protein kinase C (PKC) (60-63). Concentrations of αT necessary to inhibit aggregation in vitro are on the order of 500 μM (60-63), or approximately 10-fold higher than achieved in vivo. The concentration difference between in vitro and in vivo efficacy has been rationalized on the basis of incomplete tocopherol incorporation into membranes during in vitro incubation (63). Nonetheless, subjects supplemented with oral αT have diminished platelet aggregation (63). We therefore sought to investigate the ability of γ-tocopherol to inhibit platelet aggregation. PRP was obtained from two volunteers. Platelets were stimulated to aggregate with ADP, thrombin receptor activating peptide (TRAP) or the PKC agonist phorbol myristyl acetate (PMA) and aggregation was measured using a 4-channel clinical aggregometer. Specific platelet samples were preincubated with vehicle, αT, γT or 5-NO2-γ-tocopherol for 1 H prior to stimulation. Tocopherol concentrations were set at 10-fold excess to average PRP levels based on the precedent of previous in vitro aggregation experiments that used αT as an inhibitor (60-63).

[2] = upper vs lowest quintile of αT consumption, 87,425 nurses, 8 years; cited from earlier work
[3] = chronic αT supplementation; cited from earlier work
[4] = median intake 419 vs. 6.4 IU/day, 39,910 men; cited from earlier work
[5] = tested on: ECV304 human endothelial cells; conditions: 10 μM α-T, 10 μM γ-T or 5 μM of each; 19 hours preincubation; 5 mM SIN-1; 24 hours
Experimental: Cultured ECV304 human endothelial cells were exposed to SIN-1 in the presence of 10 μM α-T, 10 μM γ-T or 5 μM of each (FIG. 5). Tocopherols were incubated with the cells for 19 hours prior to addition of SIN-1. Viability was assayed 24 hours later using a standard tetrazolium (MTT) reduction assay.

[6] = own supplementation, 100 mg/kg/day, 10 days; cited from earlier work
[7] = rat, in vivo
Experimental: Rat pups were injected intraperitoneally (I.P.) with αT or γT in an olive oil vehicle every other day for 30 days beginning 2 days after birth; control animals received vehicle only. Olive oil was chosen as a vehicle because of the low tocopherol content in this particular vegetable oil. […] One half of each animal group was injected with a septic dose of LPS (2.5 mg/kg, I.P). After 24 H, animals were killed and organs collected. αKGDH was assayed in heart tissue and tocopherols were measured by HPLC-ECD/PDA.

[8] = tested on: αKGDH; assay: αKGDH protection against SIN-1 nitrative stress in isolated mitochondria in vitro; assay type: biochemical, rat; conditions: 400 μM SIN-1, one hour
Experimental: FIG. 3 is a graph showing rat brain mitochondria exposed to 0.4 mM SIN-1 for 1 H after addition of tocopherol. (•)α-tocopherol; (▪)γ-tocopherol. The scale bars labeled [α]norm and [Y]norm indicate the normal endogenous quantities of α-tocopherol and γ-tocopherol, respectively, in human brain.
αKGDH is a rate-limiting enzyme of mitochondrial energy production which is diminished in conditions of vascular ischemia (53-58); augmentation of the enzyme with α-ketoglutarate has been found beneficial and α-ketoglutarate is now included as a component in cardioplegia fluid to improve recovery after heart surgery (59). We undertook to determine whether γT protects αKGDH against nitrative stress in vitro. Mitochondria were isolated from adult rat brain then sonicated briefly in the presence of either αT or γT, or an ethanol vehicle. Mitochondria were then exposed to SIN-1, which generates NO and superoxide simultaneously at a known rate (7). Combination of NO and superoxide yields ONOO^−. in situ (discussed above).

[9] = tested on: platelets; conditions: cited from earlier work
[10] = 100 mg/kg/day for 10 days; 29% FeCl3 patch; cited from earlier work
[11] = plasma concentrations of tocopherols and 5-NO2-γ-tocopherol in volunteers; assay type: in vivo, human; conditions: mean ± SEM
From the text: Smoking is recognized as a major contributing factor to heart disease and γ-T reportedly decreases more than α-T in smokers. Hypertension is also a strong risk factor for heart disease. […] Seven subjects indicated a chronic hypertensive condition. As outlined in Table I, γ-tocopherol tended to decrease in hypertensive subjects while nitration products tended to increase in both smokers and hypertensive subjects. This was the trend regardless of whether the tocopherol concentrations were normalized to plasma triglycerides (Table I).

[12] = 400-800 IU/day, 18 months, cited from earlier work
[13] = associated with a 40% increase in plasma αT; cited from earlier work
[14] = tested on: αKGDH; assay: heart αKGDH activity after tocopherol supplementation, with or without LPS challenge; assay type: in vivo, rat; conditions: animals not subjected to LPS stress; 15 mg tocopherol I.P. over 30 days
Experimental: Rats were injected with 15 mg of tocopherol over the first 1 month of life; specific groups were then challenged with a septic dose of LPS and heart αKGDH activity was assayed 24 H later. *p<0.1 relative to vehicle; †p<0.05 relative to vehicle. N=5/group.
Rat pups were injected intraperitoneally (I.P.) with αT or γT in an olive oil vehicle every other day for 30 days beginning 2 days after birth; control animals received vehicle only. […] A total of 15 mg tocopherol was delivered to each animal over the 30 day period; animal weight at the end of the period was approximately 90 g for all three groups. One half of each animal group was injected with a septic dose of LPS (2.5 mg/kg, I.P). After 24 H, animals were killed and organs collected. αKGDH was assayed in heart tissue and tocopherols were measured by HPLC-ECD/PDA.

[15] = 400 IU/day natural αT, 4.5 years, 9541 subjects; cited from earlier work
[16] = 35,000 postmenopausal women, 7 years; supplements alone or with dietary intake; cited from earlier work
[17] = 50 mg/kg supplement, 5.3 years follow-up; cited from earlier work
[18] = cited from earlier work

## Cc1c(C)c2c(c(C)c1O)CC[C@@](C)(CCC[C@H](C)CCC[C@H](C)CCCC(C)C)O2 [α-tocopherol, reference compound]
[1]; ADP 20 μM, Subject 1
  Platelet Aggregation (% maximum): 85 % maximum
[1]; ADP 20 μM, Subject 2
  Platelet Aggregation (% maximum): 72 % maximum
[1]; PMA 200 nM, Subject 1
  Platelet Aggregation (% maximum): 74 % maximum
[1]; PMA 200 nM, Subject 2
  Platelet Aggregation (% maximum): 34 % maximum
[1]; TRAP 20 μM, Subject 1
  Platelet Aggregation (% maximum): 44 % maximum
[1]; TRAP 20 μM, Subject 2
  Platelet Aggregation (% maximum): 75 % maximum
[2]
  diminished risk of coronary disease: 34%
[3]
  increase of plasma levels of αT: 300-400%
[4]
  diminished risk of CAD: 39%
[5]
  effect on SIN-1 toxicity (MTT viability): no apparent effect
[6]
  increase of plasma level above baseline: 2 fold
[7]
  heart tissue tocopherol concentration, controls: 23±12 ng/mg protein
[8]
  concentration offering as much αKGDH protection as 50-100 nM γT: 1 to 10 µM
[8]; rat brain mitochondria
  tocopherol concentration of maximal αKGDH protection: 1 µM
[9]
  concentration necessary to inhibit aggregation in vitro: ~500 µM
[10]
  delay/increase of time to occlusive thrombus: 25%
[11]; hypertensives, N = 7
  plasma concentration: 23.1 ± 12.2 μg/mL plasma
  plasma concentration normalized to triglyceride: 21.9 ± 5.9 μg/mg triglyceride
[11]; population, N = 54
  plasma concentration: 18.3 ± 2.6 μg/mL plasma
  plasma concentration normalized to triglyceride: 34.2 ± 14.2 μg/mg triglyceride
[11]; smokers, N = 7
  plasma concentration: 24.9 ± 9.2 μg/mL plasma
  plasma concentration normalized to triglyceride: 21.5 ± 4.5 μg/mg triglyceride
[12]; 2002 male smokers with CAD
  reduction in nonfatal myocardial infarction: 77%
[12]
  increase in all-cause mortality: 29%
[13]
  lower mortality rate (ischemic heart disease): 84%
[14]
  increase of mean heart αKGDH activity: 40%
[15]
  effect on primary or secondary cardiovascular outcomes or death: no effect
[16]
  benefit of supplements on cardiovascular death: no benefit
[17]
  effect on MI or mortality: no effect
[18]; 50 IU/day supplementation
  increase of plasma αT: 50%
[18]; 50 IU/day, 5-8 years
  effect on death from hemorrhagic stroke: increases death from hemorrhagic stroke
  effect on total mortality of smokers: does not decrease total mortality
